# Target: Wee1 (Homo sapiens, UniProt P30291)
# Test: Detection of protein degradation by the drug (Western blot)
# Assay type: cell-based
# Parameters: endogenous in cells; host or cells: MOLT-4, U87-MG
# Details: 6 hours
# Protocol: Cells were seeded in 6-well plates at a density of about 70%, and the compound WX106 of different concentrations (concentrations shown in the accompanying drawings) were added for 6 hours of treatment, and then the whole-cell lysates were collected for target protein detection. The antibody used was: (Wee1 (D10D2) Rabbit mAb, Cell Signaling, 13084S). To investigate whether drug-induced protein degradation occurs via the ubiquitin pathway, MG132 was used to block ubiquitin-mediated protein degradation. This method was also applied to 293T, MOLT-4, U87-MG, HCT116, and LN-229.
# FIG. 13 and FIG. 14 show the effect of WX106 on Wee1 protein expression in MOLT-4 cells.
# Wee1, sequence (P30291 whole entry): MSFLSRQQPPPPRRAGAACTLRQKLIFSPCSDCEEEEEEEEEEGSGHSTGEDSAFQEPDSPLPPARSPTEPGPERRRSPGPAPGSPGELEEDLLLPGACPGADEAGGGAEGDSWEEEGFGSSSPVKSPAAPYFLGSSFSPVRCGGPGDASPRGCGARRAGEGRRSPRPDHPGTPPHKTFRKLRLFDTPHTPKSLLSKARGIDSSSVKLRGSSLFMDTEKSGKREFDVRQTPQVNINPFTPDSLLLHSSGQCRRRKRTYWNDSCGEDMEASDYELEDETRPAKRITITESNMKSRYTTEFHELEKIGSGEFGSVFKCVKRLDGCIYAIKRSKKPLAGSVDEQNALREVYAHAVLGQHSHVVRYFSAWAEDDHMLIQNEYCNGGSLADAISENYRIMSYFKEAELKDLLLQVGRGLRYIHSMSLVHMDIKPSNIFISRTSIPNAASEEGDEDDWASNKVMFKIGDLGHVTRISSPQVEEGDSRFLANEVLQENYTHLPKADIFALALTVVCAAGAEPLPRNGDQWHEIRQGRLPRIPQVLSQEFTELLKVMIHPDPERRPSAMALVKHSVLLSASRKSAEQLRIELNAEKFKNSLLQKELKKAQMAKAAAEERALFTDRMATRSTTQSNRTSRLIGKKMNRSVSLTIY
compound,measurement,setting,value
Cc1ccc(C(=O)Nc2ccc3occ(C4CCC(=O)NC4=O)c3c2)cc1Cl (centres unmarked) [WX106],pro-degradation effect on Wee1,HCT116 cells,weak pro-degradation effect
same,pro-degradation effect on Wee1,U87-MG cells,significant pro-degradation effect

# Reference: US12466816B2, “Fused cyclic compound capable of degrading protein and use thereof” (Medshine Discovery Inc., priority 2019, dated 2025)
